From patent publication US9440982B2 (Eolas Therapeutics, Inc., priority 2012, dated 2016)
Like-named read-outs stand apart in the source and are kept apart here.

Tests used:
OX1 = target: T1, OX1 (Homo sapiens, UniProt O43613); assay: Orexin receptor cell-based functional assay, [Ca2+]i by FLIPR, CHO-OX1 cells
T1 construct: expressed in transfected cells; host or cells: CHO (CHO-OX1, kept under selection antibiotic)
T1 sequence (O43613 1-425): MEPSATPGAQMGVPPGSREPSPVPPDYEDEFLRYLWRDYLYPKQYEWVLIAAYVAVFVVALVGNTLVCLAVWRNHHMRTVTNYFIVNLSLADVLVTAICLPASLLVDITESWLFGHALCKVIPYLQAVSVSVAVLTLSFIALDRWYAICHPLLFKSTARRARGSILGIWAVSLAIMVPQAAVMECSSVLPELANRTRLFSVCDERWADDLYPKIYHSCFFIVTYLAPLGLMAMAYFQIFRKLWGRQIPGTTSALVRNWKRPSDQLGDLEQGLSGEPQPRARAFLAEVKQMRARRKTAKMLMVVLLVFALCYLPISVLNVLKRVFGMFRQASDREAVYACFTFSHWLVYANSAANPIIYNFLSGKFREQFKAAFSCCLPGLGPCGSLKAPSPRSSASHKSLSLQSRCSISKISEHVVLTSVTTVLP
In short: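 CHO cells expressing human OX1 or OX2 loaded with calcium dye plus 2.5 mM probenecid at 37° C (calcium4, 30 min, or calcium6, 2 h), then exposed to compounds (0.1 nM-10 μM) for 30 min. Intracellular Ca2+ measured on FLIPR; antagonist format.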

CYP3A4 = target: T2, CYP3A4 (Homo sapiens, UniProt P08684); assay: Cytochrome P450 inhibition assay (midazolam hydroxylation); format: in vitro ADME; conditions: human, human liver microsomes, probe midazolam (hydroxylation to 1′-hydroxymidazolam), 10 μM test compound, midazolam at approximately its Km
T2 construct: pre-incubated with human liver microsomes and NADPH; from tissue; host or cells: human liver microsomes
T2 sequence (P08684 whole entry): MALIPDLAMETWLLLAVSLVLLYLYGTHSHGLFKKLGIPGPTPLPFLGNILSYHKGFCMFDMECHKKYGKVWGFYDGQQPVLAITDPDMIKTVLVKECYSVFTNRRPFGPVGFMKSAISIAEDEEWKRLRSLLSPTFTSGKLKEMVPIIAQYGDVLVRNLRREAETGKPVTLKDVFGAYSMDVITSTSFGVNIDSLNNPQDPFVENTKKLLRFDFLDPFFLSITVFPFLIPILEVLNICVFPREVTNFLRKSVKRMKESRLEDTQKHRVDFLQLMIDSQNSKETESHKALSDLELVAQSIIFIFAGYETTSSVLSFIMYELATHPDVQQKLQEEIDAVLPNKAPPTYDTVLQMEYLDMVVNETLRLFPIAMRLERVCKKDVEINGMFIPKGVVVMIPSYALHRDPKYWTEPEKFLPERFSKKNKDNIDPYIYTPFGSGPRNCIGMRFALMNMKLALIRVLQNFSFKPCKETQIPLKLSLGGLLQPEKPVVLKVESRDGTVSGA
In short: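 Human liver microsomes; CYP3A4 activity as midazolam 1′-hydroxylation with substrate near Km, with or without 10 μM test compound, read as percent inhibition. For time-dependent inhibition, parallel samples were preincubated 30 min with NADPH before substrate, and percent inhibition compared with non-preincubated samples.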

OX2 = target: T3, OX2 (Homo sapiens, UniProt O43614); assay: Orexin receptor cell-based functional assay, [Ca2+]i by FLIPR, CHO-OX2 cells; conditions: [Ca2+]i by FLIPR, antagonist dose-range 0.1 nM-10 μM, EC90 of OXA, read-out: OX2
T3 construct: expressed in transfected cells; host or cells: CHO (CHO-OX2, kept under selection antibiotic)
T3 sequence (O43614 1-444): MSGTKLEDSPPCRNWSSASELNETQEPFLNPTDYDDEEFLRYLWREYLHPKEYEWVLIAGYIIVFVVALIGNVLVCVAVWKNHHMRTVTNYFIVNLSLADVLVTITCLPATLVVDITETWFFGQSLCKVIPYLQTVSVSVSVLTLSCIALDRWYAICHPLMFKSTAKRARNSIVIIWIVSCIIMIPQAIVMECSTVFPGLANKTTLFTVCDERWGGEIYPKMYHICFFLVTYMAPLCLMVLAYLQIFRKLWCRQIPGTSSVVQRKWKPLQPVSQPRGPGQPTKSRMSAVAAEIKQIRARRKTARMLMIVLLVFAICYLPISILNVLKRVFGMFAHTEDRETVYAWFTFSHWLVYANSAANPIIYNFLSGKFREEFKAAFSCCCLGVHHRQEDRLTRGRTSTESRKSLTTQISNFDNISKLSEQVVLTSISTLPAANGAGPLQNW
Experimental: Measurement of [Ca^2+]i using a FLIPR: CHO—OX1 or CHO—OX2 cells are seeded into black-walled clear-base 384-well plates (Costar) at a density of 20,000 cells per well in F12-K medium supplemented with 10% FBS and selection antibiotic (500 ug/ml G418 or 15 ug/ml Blasticidin) and cultured overnight. The cells are incubated with equal volume of calcium4 loading buffer (Molecular Devices, Inc.) containing 2.5 mM probenecid at 37° C. for 30 min, followed by putative OX1 or OX2 receptor antagonists (dose-range 0.1 nM-10 μM) for another 30 min.
The cells are incubated with equal volume of calcium6 loading buffer (Molecular Devices, Inc.) containing 2.5 mM probenecid at 37° C. for 2 h, followed by test compounds (dose-range 0.1 nM-10 μM) for another 30 min.

[1] = CHO-OX1 cells, [Ca2+]i by FLIPR, antagonist dose-range 0.1 nM-10 μM, EC90 of OXA, read-out: OX1

Row | IC50 (OX1; [1]) [µM] | inhibition at 10 µM (CYP3A4) [%] | IC50 (OX2) [nM] | Compound | IC50 (OX1; OX1 (μM)) [µM]
1 | 0.037 | 63 | – | C[C@@H]1CCCN(C(=O)c2cccc(F)c2-n2nccn2)[C@@H]1CNc1ccc(Cl)cn1 [Example A254, ((2S,3R)-2-(((5-Chloropyridin-2-yl)amino)methyl)-3-methylpiperidin-1-yl)(3-fluoro-2-(2H-1,2,3-triazol-2-yl)phenyl)methanone] | –
2 | 0.041 | 41 | – | C[C@@H]1CCCN(C(=O)c2cccc(F)c2-n2nccn2)[C@@H]1CNc1ncc(Cl)cn1 [Example A255, ((2S,3R)-2-(((5-Chloropyrimidin-2-yl)amino)methyl)-3-methylpiperidin-1-yl)(3-fluoro-2-(2H-1,2,3-triazol-2-yl)phenyl)methanone] | –
3 | 0.004 | 69 | – | C[C@@H]1CCCN(C(=O)c2cccc(F)c2-n2nccn2)[C@@H]1CNc1ccc(C(F)(F)F)cn1 [Example A257, (3-Fluoro-2-(2H-1,2,3-triazol-2-yl)phenyl)((2S,3R)-3-methyl-2-(((5-(trifluoromethyl)pyridin-2-yl)amino)methyl)piperidin-1-yl)methanone] | –
4 | 0.004 | 69 | – | C[C@@H]1CCCN(C(=O)c2c(F)cccc2-n2nccn2)[C@@H]1CNc1ccc(C(F)(F)F)cn1 [Example A258, (2-Fluoro-6-(2H-1,2,3-triazol-2-yl)phenyl)((2S,3R)-3-methyl-2-(((5-(trifluoromethyl)pyridin-2-yl)amino)methyl)piperidin-1-yl)methanone] | –
5 | 0.009 | 37 | – | C[C@@H]1CCCN(C(=O)c2c(F)cccc2-n2nccn2)[C@@H]1CNc1ncc(C(F)(F)F)cn1 [Example A259, (2-Fluoro-6-(2H-1,2,3-triazol-2-yl)phenyl)((2S,3R)-3-methyl-2-(((5-(trifluoromethyl)pyrimidin-2-yl)amino)methyl)piperidin-1-yl)methanone] | –
6 | 0.085 | 53 | – | C[C@@H]1CCCN(C(=O)c2c(F)cccc2-n2nccn2)[C@@H]1CNc1ncc(Cl)cn1 [Example A260, ((2S,3R)-2-(((5-Chloropyrimidin-2-yl)amino)methyl)-3-methylpiperidin-1-yl)(2-fluoro-6-(2H-1,2,3-triazol-2-yl)phenyl)methanone] | –
7 | 0.005 | 77 | – | C[C@@H]1CCCN(C(=O)c2c(F)cccc2-n2nccn2)[C@@H]1CNc1ccc(Cl)cn1 [Example A261, ((2S,3R)-2-(((5-Chloropyridin-2-yl)amino)methyl)-3-methylpiperidin-1-yl)(2-fluoro-6-(2H-1,2,3-triazol-2-yl)phenyl)methanone] | –
8 | 0.005 | 75 | – | Cc1cccc(C(=O)N2CCC[C@@H](C)[C@H]2CNc2ccc(C(F)(F)F)cn2)c1-c1ncccn1 [Example A298, ((2S,3R)-3-Methyl-2-(((5-(trifluoromethyl)pyridin-2-yl)amino)methyl)piperidin-1-yl)(3-methyl-2-(pyrimidin-2-yl)phenyl)methanone] | –
9 | 0.25 | 46 | – | Cc1cccc(-c2ncccn2)c1C(=O)N1CCC[C@@H](C)[C@H]1CNc1ncc(C(F)(F)F)cn1 [Example A307, ((2S,3R)-3-Methyl-2-(((5-(trifluoromethyl)pyrimidin-2-yl)amino)methyl)piperidin-1-yl)(2-methyl-6-(pyrimidin-2-yl)phenyl)methanone] | –
10 | 0.005 | 60 | – | C[C@@H]1CCCN(C(=O)c2ccccc2-n2nccn2)[C@@H]1CNc1ncc(C(F)(F)F)cn1 [Example A313, (2-(2H-1,2,3-Triazol-2-yl)phenyl)((2S,3R)-3-methyl-2-(((5-(trifluoromethyl)pyrimidin-2-yl)amino)methyl)piperidin-1-yl)methanone] | –
11 | 0.002 | 76 | – | C[C@@H]1CCCN(C(=O)c2ccccc2-n2nccn2)[C@@H]1CNc1ccc(C(F)(F)F)cn1 [Example A314, (2-(2H-1,2,3-Triazol-2-yl)phenyl)((2S,3R)-3-methyl-2-(((5-(trifluoromethyl)pyridin-2-yl)amino)methyl)piperidin-1-yl)methanone] | –
12 | 0.004 | 63 | – | C[C@@H]1CCCN(C(=O)c2ccccc2-c2ncccn2)[C@@H]1CNc1ccc(C(F)(F)F)cn1 [Example A316, ((2S,3R)-3-Methyl-2-(((5-(trifluoromethyl)pyridin-2-yl)amino)methyl)piperidin-1-yl)(2-(pyrimidin-2-yl)phenyl)methanone] | –
13 | 0.001 | 46 | – | C[C@@H]1CCCN(C(=O)c2ccccc2-c2ncccn2)[C@@H]1CNc1ncc(C(F)(F)F)cn1 [Example A317, ((2S,3R)-3-Methyl-2-(((5-(trifluoromethyl)pyrimidin-2-yl)amino)methyl)piperidin-1-yl)(2-(pyrimidin-2-yl)phenyl)methanone] | –
14 | 0.007 | 79 | – | Cc1ccc(-n2nccn2)c(C(=O)N2CCC[C@@H](C)[C@H]2CNc2ccc(C(F)(F)F)cn2)c1F [Example A318, (2-Fluoro-3-methyl-6-(2H-1,2,3-triazol-2-yl)phenyl)((2S,3R)-3-methyl-2-(((5-(trifluoromethyl)pyridin-2-yl)amino)methyl)piperidin-1-yl)methanone] | –
15 | 0.006 | 53 | – | Cc1ccc(-n2nccn2)c(C(=O)N2CCC[C@@H](C)[C@H]2CNc2ncc(C(F)(F)F)cn2)c1F [Example A319, (2-Fluoro-3-methyl-6-(2H-1,2,3-triazol-2-yl)phenyl)((2S,3R)-3-methyl-2-(((5-(trifluoromethyl)pyrimidin-2-yl)amino)methyl)piperidin-1-yl)methanone] | –
16 | 0.011 | 40 | – | C[C@@H]1CCCN(C(=O)c2cc(C#N)ccc2-n2nccn2)[C@@H]1CNc1ncc(C(F)(F)F)cn1 [Example A322, 3-((2S,3R)-3-Methyl-2-(((5-(trifluoromethyl)pyrimidin-2-yl)amino)methyl)piperidine-1-carbonyl)-4-(2H-1,2,3-triazol-2-yl)benzonitrile] | –
17 | 0.01 | 39 | – | C[C@@H]1CCCN(C(=O)c2cc(C#N)ccc2-c2ncccn2)[C@@H]1CNc1ncc(C(F)(F)F)cn1 [Example A323, 3-((2S,3R)-3-Methyl-2-(((5-(trifluoromethyl)pyrimidin-2-yl)amino)methyl)piperidine-1-carbonyl)-4-(pyrimidin-2-yl)benzonitrile] | –
18 | – | – | > 5000 | C[C@@H]1CCCN(C(=O)c2cc(F)cc(F)c2-n2nccn2)[C@@H]1CNc1ccc(C(F)(F)F)cn1 [Example A328, (3,5-Difluoro-2-(2H-1,2,3-triazol-2-yl)phenyl)((2S,3R)-3-methyl-2-(((5-(trifluoromethyl)pyridin-2-yl)amino)methyl)piperidin-1-yl)methanone] | –
19 | 0.005 | 83 | – | Cc1ccc(C(=O)N2CCC[C@@H](C)[C@H]2CNc2ccc(C(F)(F)F)cn2)c(-c2ncccn2)c1F [Example A358, (3-fluoro-4-methyl-2-(pyrimidin-2-yl)phenyl)((2S,3R)-3-methyl-2-(((5-(trifluoromethyl)pyridin-2-yl)amino)methyl)piperidin-1-yl)methanone] | –

Row | Compound | IC50 (OX1; [1]) [µM] | inhibition at 10 µM (CYP3A4) [%] | IC50 (OX2) [nM] | IC50 (OX1; OX1 (μM)) [µM]
20 | C[C@@H]1CCCN(C(=O)c2cc(F)ccc2-n2nccn2)[C@@H]1CNc1ccc(C(F)(F)F)cn1 [Example A310] | – | 75 | – | 0.003
